Assay results taken from publication PMC3062105 (Clinical infectious diseases : an official publication of …, 2011).
Values joined by “and” are separate entries in the source; they are usually repeats but may differ in a detail not shown here. Equal entries are not always repeated.

System: influenza viruses
Parameters: species or system human (pediatric influenza patients)
Conditions: human, in vivo

Compound	Virus isolation rate from specimens
CCOC(=O)C1=C[C@@H](OC(CC)CC)[C@H](NC(C)=O)[C@@H](N)C1 [oseltamivir]	68% and 69%
CC(=O)N[C@H]1[C@H]([C@H](O)[C@H](O)CO)OC(C(=O)O)=C[C@@H]1N=C(N)N [zanamivir]	50% and 39%
